Data set [1] addresses Prothrombin (Bos taurus, UniProt P00735). Briefly: Inhibition of bovine thrombin using D-Phe-Pip-Arg-p-NA as substrate by chromogenic assay. The following applies: read-out: Ki.
A short description of data set [2]: 1-octanol-water partition coefficient, log P of the neutral form compound by HILIC analysis. The data set is classed as physicochemical.
The nature of data set [3]: Dissociation constant, pKa of the compound by potentiometric titration. The data set is classed as physicochemical.
Data set [4] has as its target Chymotrypsinogen A (Bos taurus, UniProt P00766). The data set is described as follows: Inhibition of bovine alpha-chymotrypsin using N-succinyl-Ala-Ala-Pro-Phe-p-NA as substrate by chromogenic assay.
The test system of data set [5] is Mus musculus. Briefly: Ex vivo anticoagulant activity in CD1 mouse plasma assessed as activated partial thromboplastin time at 100 mg/kg, po after 1 hr. The data set is classed as functional.
Data set [6] can be described thus: 1-octanol-water partition coefficient, log D of the compound. Format: physicochemical.
For data set [7], the target named is Prothrombin (Homo sapiens, UniProt P00734). Briefly: Inhibition of human thrombin using D-Phe-Pip-Arg-p-NA as substrate by chromogenic assay.
For data set [8], the system named is Plasma. The data set is described as follows: Anticoagulant activity in human plasma assessed as concentration required to double activated […] time. Format: functional.
Data set [9] deals with Mus musculus. Briefly: Ex vivo anticoagulant activity in CD1 mouse plasma assessed as activated partial thromboplastin time at 100 mg/kg, po after 2 hrs. The data set is classed as functional.
Data set [10] can be described thus: Inhibition of bovine pancreatic trypsin using D-Phe-Pip-Arg-p-NA as substrate by chromogenic assay. On the set-up: species or system Bos taurus.
Data set [11] has as its target T1, Coagulation factor VII (Homo sapiens, UniProt P08709).
T1 sequence (P08709 whole entry): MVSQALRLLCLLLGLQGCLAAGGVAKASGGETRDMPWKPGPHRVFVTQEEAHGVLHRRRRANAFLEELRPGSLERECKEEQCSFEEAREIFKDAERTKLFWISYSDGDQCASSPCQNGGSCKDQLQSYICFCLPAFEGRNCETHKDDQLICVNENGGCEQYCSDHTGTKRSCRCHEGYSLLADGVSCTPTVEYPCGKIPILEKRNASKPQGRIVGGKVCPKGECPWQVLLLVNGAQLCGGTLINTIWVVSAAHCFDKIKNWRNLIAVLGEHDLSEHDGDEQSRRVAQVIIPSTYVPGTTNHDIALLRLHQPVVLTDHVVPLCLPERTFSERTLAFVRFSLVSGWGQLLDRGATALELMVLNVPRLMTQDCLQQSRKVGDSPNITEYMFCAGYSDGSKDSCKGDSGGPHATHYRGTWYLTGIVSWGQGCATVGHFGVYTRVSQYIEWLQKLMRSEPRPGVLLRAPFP
Briefly: Inhibition of human recombinant factor 7a using spectrozyme as substrate by chromogenic assay.

Data set [12] addresses T2, Neutrophil elastase (Homo sapiens, UniProt P08246).
T2 sequence (P08246 whole entry): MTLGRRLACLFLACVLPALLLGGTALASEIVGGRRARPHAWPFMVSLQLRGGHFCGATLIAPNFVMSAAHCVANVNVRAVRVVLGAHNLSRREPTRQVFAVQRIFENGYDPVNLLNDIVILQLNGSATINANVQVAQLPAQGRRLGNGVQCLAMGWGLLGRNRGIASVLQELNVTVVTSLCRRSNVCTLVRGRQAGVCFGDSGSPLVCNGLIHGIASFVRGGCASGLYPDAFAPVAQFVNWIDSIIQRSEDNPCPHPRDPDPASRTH
Briefly: Inhibition of human neutrophil leukocyte elastase using N-(methoxysuccinyl)-Ala-Ala-Pro-Val-p-NA as substrate by chromogenic assay.

As a reminder, the Ki is the dissociation constant of the complex between target and ligand, obtained from inhibition or displacement. The term logP denotes the decadic logarithm of the partition coefficient of the neutral form, usually between octanol and water. Lower therefore signals a more hydrophilic compound. In general, pKa refers to the pH at which an ionisable group is half protonated. The low end stands for a group that gives up its proton readily, the high end for a group that holds its proton tightly. What is called logD is lipophilicity at a set pH, counting ionised and neutral species. A lower logD goes with a more hydrophilic compound. Take `O=C(Nc1cccc(OCc2cccc(F)c2)c1)C1CCN(c2ccncc2)CC1`: the Ki is 0.006 µM in [1]; 6.6 µM in data set [4]; 0.016 µM in [7]; more than 250 µM in [10]; more than 250 µM in data set [11]; 11.3 µM in data set [12]. For the same molecule, in [2], the logP was 5. This molecule showed a pKa in data set [3] of 9. Besides, the Activity stood at 36% in data set [5] and 43% in data set [9]. The molecule further showed a logD in [6] of 3.14. In addition, the 2aPTT in [8] worked out at 6.6 µM.

For the origin of these results see ChEMBL document CHEMBL2440069, “Synthesis and biological evaluation of direct thrombin inhibitors bearing 4-(piperidin-1-yl)pyridine at the P1 position with potent anticoagulant activity” (J Med Chem, 2013).
